Experimental data reported in US9481713B2, “Self-assembling peptides incorporating modifications and methods of use thereof” (Massachusetts Institute of Technology, priority 2010, dated 2016).

Key:
[1] = tested on: human periodontal ligament fibroblasts (HPDLF); experiment: Periodontal ligament fibroblast migration into peptide scaffolds (confocal microscopy); type: cell-based; conditions: for fibroblast adhesion, proliferation and 3-D migration into scaffold: reconstructed confocal images
Experimental: (§1) 1% RADA16 solution was obtained as PuraMatrix (3DM Inc./BD Bioscience). VEVK9, VEVK12 and the functionalized peptides were obtained from CPC Scientific (San Jose, Calif.) and dissolved in water at final concentration of 1% […]. The functionalized peptide solutions were then mixed with 1% RADA16, VEVK9 or VEVK12 solution at a ratio of 1:1. Each peptide solution was then loaded in the cell culture plate insert (BD Bioscience, Bedford, Mass.). The medium described below was added to induce hydrogel formation.
(§2) Primary isolated human periodontal ligament fibroblasts were commercially obtained from Lonza Inc. (HPDLF, Walkersville, Md.) and routinely grown in the culture medium (SCGM, Walkersville, Md.) on regular cell culture flask. The cells were plated at 2×10^4 cells on the gel in the inserts. The culture medium was changed every three days. Additional growth factors were not used.
(§3) Following the experiments, the cells on the gel were fixed with 4% paraformaldehyde for 15 min and permeabilized with 0.1% Triton X-100 for 5 min at room temperature. Fluorescent Rhodamin phalloidin and SYTOX® Green (Molecular Probes, Eugene, Oreg.) were used for labeling F-actin and nuclei, respectively. Images were taken using a fluorescence microscope (Axiovert 25, ZEISS) or laser confocal scanning microscope (Olympus FV300).
The functionalized peptide was obtained from CPC Scientific (San Jose, Calif.) and dissolved in water at final concentration of 1% […] as well. The functionalized peptide solutions were then mix with 1% VEVK9 or VEVK12 solution. The each peptide solution was loaded in the cell culture plate insert (BD Bioscience, Bedford, Mass.). The medium described below was added to induce hydrogel formation.

[2] = tested on: human periodontal ligament fibroblasts (HPDLF); experiment: Periodontal ligament fibroblast attachment and proliferation on peptide scaffolds; type: cell-based; conditions: periodontal ligament fibroblasts cultured for three weeks
Experimental: as §1, §2, §3

[3] = Tapping mode AFM analysis of nanofiber formation; type: physicochemical; conditions: aqueous solutions
From the text: VEVK9 and VEVK12 are simple repeating units of amino acids VEVK (Valine-Glutamate-Valine-Lysine) which self-assemble into a nanofiber structure. The self-assembling peptide VEVK9 was functionalized either with RGD, laminin cell adhesion motifs or an MMP cleavable motif in order to mimic extracellular matrix to enhance cell maintenance and function in cell cultures. The functionalized peptides vPRG, vYIG and vIKV were synthesized with the VEVK9 sequence plus an additional motif added to the C-terminus using solid phase synthesis. One motif contains two repetitions of the RGD sequence (PRGDSGYRGDS (SEQ ID NO: 15)), and the others are cell adhesion motifs of laminin (YIGSR (SEQ ID NO: 5), IKVAV (SEQ ID NO: 6)). Glycine residues were used between the self-assembling motif VEVKVEVKV (SEQ ID NO: 2) and the functional motif as a spaced linker to keep the flexibility of the functional peptides. The MMP-2 cleavable motif (PVGLIG (SEQ ID NO: 11)) was inserted between two VEVK units. In comparison to RADA16-I and its functionalized peptides, these peptides are short sequences, maximum 20 amino acids (in vPRG), and seem to be cost-effective. The peptides were solubilized in water at a concentration of 10 mg/ml (1%, w/v). The peptides readily undergo self-assembly to form soft hydrogels. Mixing with self-assembling peptide VEVK9 or VEVK12 facilitated self-assembly and gelation. […]

MMP-2 = target: T1, MMP-2 (Homo sapiens, UniProt P08253); conditions: reference 19b; cited from earlier work
T1 sequence (P08253 110-660): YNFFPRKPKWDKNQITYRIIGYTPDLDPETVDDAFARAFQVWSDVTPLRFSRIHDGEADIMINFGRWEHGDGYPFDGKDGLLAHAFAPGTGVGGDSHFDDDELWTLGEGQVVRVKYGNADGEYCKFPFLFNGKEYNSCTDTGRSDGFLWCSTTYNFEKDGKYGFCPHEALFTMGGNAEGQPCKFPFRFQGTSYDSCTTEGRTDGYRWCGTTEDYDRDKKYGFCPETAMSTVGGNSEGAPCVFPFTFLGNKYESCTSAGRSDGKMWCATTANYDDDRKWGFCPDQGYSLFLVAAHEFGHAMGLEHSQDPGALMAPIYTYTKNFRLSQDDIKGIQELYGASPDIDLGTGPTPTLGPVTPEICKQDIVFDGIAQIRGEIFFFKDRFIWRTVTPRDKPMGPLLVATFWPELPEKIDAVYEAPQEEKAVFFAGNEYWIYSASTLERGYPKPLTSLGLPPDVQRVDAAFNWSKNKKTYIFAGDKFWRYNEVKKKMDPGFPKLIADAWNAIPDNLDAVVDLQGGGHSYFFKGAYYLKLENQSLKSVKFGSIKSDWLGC

[4] = tested on: human periodontal ligament fibroblasts (HPDLF); experiment: Fluorescent immunostaining of type I and type III collagen production on peptide scaffolds; type: cell-based; conditions: six weeks cell culture, compared to RADA16 (FIG. 5)
Experimental: as §2
After the cell fixation, the primary antibody for type I collagen (5% Anti-collagen type I, Millpore, Mass.) was added and incubated at 37° for 40 min, then washing six times with PBS with 1% BSA. The second antibody (0.5% Alexa fluor 488 goat anti-rabbit IgG, Invitrogen) was added and incubated at 37° for another 40 min, then washing as well. After that, the primary antibody for type III collagen (0.5% Anti-collagen type III, Millpore, Mass.) was added and incubated at 37° for 40 min, then washing. Finally, the second antibody (0.5% Alexa fluor 594 goat ant-mouse IgG, Invitrogen) was added and incubated at 37° for another 40 min. Nonspecific staining as a control was performed by omitting primary antibodies.

[5] = tested on: Human gingival fibroblasts (HGF-1); experiment: Gingival fibroblast attachment and migration on peptide scaffolds (selective cell reproduction); type: cell-based; conditions: Example 2 comparison study, HGF-1 (FIG. 6)
Experimental: We tested the selective cell reproduction property of the functional scaffolds, using two periodontal cells, periodontal ligament fibroblasts and gingival fibroblasts.
Human gingival fibroblasts were commercially obtained from ATCC (HGF-1) and routinely grown in the culture medium (DMEM+10% FBS) on regular cell culture flask. The cells were plated at 2×10^4 cells on the gel in the inserts. The culture medium was changed every three days.

| Substance | fibroblast adhesion, proliferation and 3-D migration into scaffold [1] | cell attachment and morphology [2] | further results |
| --- | --- | --- | --- |
| Ac-VEVKGPVGLIGVEVKCONH2 [vPVG] | significant increases in fibroblast proliferation and migration |  |  |
| Ac-VEVKVEVKVGIKVAVCONH2 [vIKV] | migrate into them in the same manner | good attachment and extension |  |
| Ac-VEVKVEVKVGPRGDSGYRGDSGCONH2 [vPRG] | significant increases in fibroblast proliferation and migration | good attachment and extension |  |
| Ac-VEVKVEVKVEVK-CONH2 (Ac-VEVKVEVKVEVK-NH2) [VEVK12, 1% peptide F solution] |  | sparse and have a rounded morphology | formation of nanofibers [3]: formed nanofibers |
| (RADA)3PVGLIG (RADA)3 (RADARADARADAPVGLIGRADARA) |  |  | degradability by MMP-2 (MMP-2): degradable by MMP-2 |
| Ac(RADA)4CONH2 (Ac-RADARADARADARADA-NH2) [RADA16, 1% peptide A solution; self assembling motif, obtained as PuraMatrix] |  |  | periodontal ligament fibroblast attachment and migration ([1]; Example 2 comparison study (FIG. 6)): did not show migration in both fibroblasts; type I and type III collagens production [4]: not to produce collagens; gingival fibroblast attachment and migration [5]: did not show migration in both fibroblasts |
| Ac-VEVKVEVKVGYIGSRCONH2 [vYIG] | migrate into them in the same manner | good attachment and extension |  |
| Ac-VEVKVEVKV-CONH2 (Ac-VEVKVEVKV-NH2) [VEVK9, 1% peptide E solution] | Only a few fibroblasts adhered | sparse and have a rounded morphology |  |
